Results on one molecule are retold here after patent publication US20230255954A1, “INTERLEUKIN 33 (IL-33) INHIBITION FOR TREATMENT OF CANCER, FIBROSIS AND INFLAMMATION” (The General Hospital Corporation, priority 2020, published 2023).

The structures appear in SMILES notation.

Assay [1] relates to mouse Il33 gene promoter (IL-33 promoter-luci reporter). Nature of the assay: IL-33 promoter luciferase screen of FDA-approved Drug Library. Particulars: 10 μM, 24 hours; IL-33 promoter-luci vs control-luci stable Pam212 cells; 1056 molecules tested. The format is cell-based. As to the method: Pam212 cells were grown at 37° C. in DMEM (Thermo Fisher Scientific, Waltham, Mass., catalog no. 11995065) supplemented with 10% fetal bovine serum (Thermo Fisher Scientific, catalog no. 26140079), 1× penicillin-streptomycin-glutamine (Thermo Fisher Scientific, catalog no. 10378016), 1×MEM non-essential amino acids solution (Thermo Fisher Scientific, catalog no. 11140050), 1×HEPES (Thermo Fisher Scientific, catalog no. 15630080) and 0.1% 2-Mercaptoethanol (Thermo Fisher Scientific, catalog no. 21985023). PyMT cell lines (derived from a primary breast tumor of MMTV-PyMrg mouse on a C57BL/6 background) were grown at 37° C. in RPMI Medium 1640 (Thermo Fisher Scientific, catalog no. 11875093) supplemented with 10% fetal bovine serum, 1× penicillin-streptomycin-glutamine and 0.1% 2-Mercaptoethanol. IL-33 promoter-luci vector (GeneCopoeia, Rockville, Md., catalog no. MPRM3494-PG02) or Control-luci vector (deletion form of IL-33 promoter region from IL-33 promoter-luci vector) or Poly (I:C) (Invivogen, San Diego, Calif., catalog no. tlrl-pic) in Pam212 cells were performed using Lipofectamine 2000 (Thermo Fisher Scientific, catalog no. 11668019) according to the manufacturer's instructions.
After transfection of plasmids in Pam212 cells, cells were incubated with 3 μg/ml of puromycin (Invivogen, San Diego, Calif., catalog no. ant-pr-1) for positive transfected cell selection. After following 2 days, medium was changed new puromycin contained medium for further selection. After following 2 days, cells were moved to new plate with puromycin contained medium. Puromycin selection was repeated for five times more.
1000 stable cells were seed to 384 wells (Corning, Glendale, Ariz., catalog no. 3570) and each of plate was incubated 24 hours. Following day, 10 μM of FDA-approved Drug Library compounds (Selleckchem, Houston, Tex., catalog no. L1300) were added to each well. After 24 hours, 5 μL of luciferase buffer from Pierce Gaussia luciferase glow assay kit (Thermo Fisher Scientific, Waltham, Mass., catalog no. 16160) were added each well and incubated for 5 min. Each plate was read and measured with luminescence by EnVision 2014 plate reader (Perkin Elmer, Waltham, Mass., catalog no. 2014 EnVision).
To make small molecule screening platform, we generated both IL-33 promoter-luci and control-luci over-expressed stable epithelial cell line (Pam212) by multiple puromycin selection strategy (FIG. 10A). To find molecules that can inhibit IL-33 expression, we tested 1056 FDA-approved small molecules against our reporter cell line. […] To find bona fide inhibitors of IL-33, we checked RNA level of Il33 by qPCR in cells treated with inducer of IL-33 expression, Poly (I:C). After cells were treated by Poly (I:C), RNA level of Il33 was increased compared to carrier group. However, Il33 RNA level was decreased by pitavastatin and tropisetron in Poly I:C-treated cells (FIGS. 10C and D). […] Finally, endogenous IL-33 protein level was decreased after treatment with pitavastatin in a dose-dependent manner (FIG. 10F). Therefore, pitavastatin is a small inhibitor molecule of IL-33.

The subject of assay [2] is Il33 expression induced by Poly (I:C) in Pam212 cells. Nature of the assay: Il33 RNA by qPCR in Poly (I:C)-treated Pam212 cells. The format is cell-based, mouse. On the procedure:
(§1) Pam212 cells were grown at 37° C. in DMEM (Thermo Fisher Scientific, Waltham, Mass., catalog no. 11995065) supplemented with 10% fetal bovine serum (Thermo Fisher Scientific, catalog no. 26140079), 1× penicillin-streptomycin-glutamine (Thermo Fisher Scientific, catalog no. 10378016), 1×MEM non-essential amino acids solution (Thermo Fisher Scientific, catalog no. 11140050), 1×HEPES (Thermo Fisher Scientific, catalog no. 15630080) and 0.1% 2-Mercaptoethanol (Thermo Fisher Scientific, catalog no. 21985023). […]
(§2) Mouse dorsal skin samples were homogenized and lysed in RLT lysis solution (QIAGEN, catalog no. 79216)/0.1% MeOH using Mini-BeadBeater-8 (BioSpec Products, Inc., Bartlesville, Okla.). Total RNA was extracted using an RNeasy micro kit and quantified using NanoDrop ND-1100 (NanoDrop Technologies, Wilmington, Del.). cDNA samples were synthesized from 1 μg of total RNA using Invitrogen SuperScripts III Reverse Transcriptase (Thermo Fisher Scientific, catalog no. 18080085). Expression levels of all cDNA samples were determined with LightCycler 480 system (Roche Molecular Systems Inc., Pleasanton, Calif.) using TaqMan Universal Master Mix II (Thermo Fisher Scientific, catalog no. 44-400-40). […]

In assay [3] the test system is endogenous Il33 expression in PyMT breast cancer cell line. Nature of the assay: Endogenous Il33 RNA in PyMT breast cancer cell line. The format is cell-based, mouse. As to the method:
as §1, §2

For the molecule `O=C(O)C[C@H](O)C[C@H](O)/C=C/c1c(C2CC2)nc2ccccc2c1-c1ccc(F)cc1` [pitavastatin], the “IL-33/Control luminescence ratio (inhibitory effect against IL-33 reporter)” value in assay [1] is “small molecule candidates”. Besides, the “Il33 RNA level” value in assay [2] is reported as “decreased”. Also, the “endogenous Il33 RNA level” value in assay [3] is “inhibitory effect”.
